Like-named read-outs stand apart in the source and are kept apart here.
Key:
[1] = target: SHP-2 enzyme (Met1-Leu525) (Homo sapiens (Human), UniProt Q06124); experiment: SHP2 inhibition enzymatic assay; assay type: biochemical; details: 0.5 nM SHP-2 activated by 500 nM IRS1 peptide, 75 μM DiFMUP substrate; read-out: SHP2wt-IC50
In short: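 Compounds were preincubated 30 min with 0.5 nM SHP-2 (Met1-Leu525) plus 500 nM IRS1 activating peptide (pH 7.2 HEPES, 5 mM DTT), then 75 μM DiFMUP substrate reacted 30 min at room temperature. After bpV quench, DiFMUP fluorescence gave % inhibition; four-parameter logistic fit yielded IC50.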

[2] = tested on: ERK phosphorylation in KYSE-520 cells; experiment: Phospho-ERK cellular assay; assay type: cell-based; details: KYSE-520 cells, 2 h at 37° C., phospho-ERK1/2 (Thr202/Tyr204) TR-FRET, read-out: PERK IC50
In short: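 TR-FRET read-out of ERK1/2 Thr202/Tyr204 phosphorylation was taken after overnight antibody incubation at room temperature. Before that, KYSE-520 cells were treated 2 h at 37 °C with compound dilutions and lysed 30 min. Percent inhibition relative to vehicle and cell-free wells was fitted four-parametrically to give IC50.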

Chain of SHP-2 enzyme (Met1-Leu525) (Q06124 1-525): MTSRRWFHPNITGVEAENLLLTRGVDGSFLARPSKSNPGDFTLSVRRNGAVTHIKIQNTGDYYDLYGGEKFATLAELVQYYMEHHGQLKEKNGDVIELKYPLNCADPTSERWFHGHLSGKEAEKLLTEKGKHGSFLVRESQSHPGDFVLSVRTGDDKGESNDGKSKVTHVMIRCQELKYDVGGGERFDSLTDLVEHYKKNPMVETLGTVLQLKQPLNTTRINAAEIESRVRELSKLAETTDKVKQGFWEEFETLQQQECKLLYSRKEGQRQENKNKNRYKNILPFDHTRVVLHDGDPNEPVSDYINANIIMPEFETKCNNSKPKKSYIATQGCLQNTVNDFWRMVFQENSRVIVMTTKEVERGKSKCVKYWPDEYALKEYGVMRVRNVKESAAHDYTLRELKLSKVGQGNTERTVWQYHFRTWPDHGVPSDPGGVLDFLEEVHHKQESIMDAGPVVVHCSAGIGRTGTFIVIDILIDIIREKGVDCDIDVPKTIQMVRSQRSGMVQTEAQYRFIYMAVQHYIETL

| IC50 [1] | IC50 ([2]; Homo sapiens, KYSE-520, 2 h) | Compound | IC50 [2] |
| --- | --- | --- | --- |
| < 500 nM | < 1000 nM | Cc1nccc(Sc2ncc(N3CC[C@@H]4[C@H](C3)[C@@]4(CN)c3cc(F)ccc3F)nc2N)c1F [Example 431, 6-((1S,6R,7R)-7-(aminomethyl)-7-(2,5-difluorophenyl)-3-azabicyclo[4.1.0]heptan-3-yl)-3-((3-fluoro-2-methylpyridin-4-yl)thio)pyrazin-2-amine] | – |
| < 500 nM | < 1000 nM | NC[C@]1(c2ccccc2)[C@@H]2CN(c3cnc4c(-c5ccc6nccnc6c5Cl)n[nH]c4n3)C[C@@H]21 [Example 456, ((1R,5S,6s)-3-(3-(5-chloroquinoxalin-6-yl)-1H-pyrazolo[3,4-b]pyrazin-6-yl)-6-phenyl-3-azabicyclo[3.1.0]hexan-6-yl)methanamine] | – |
| < 500 nM | < 1000 nM | COCc1ccc(-c2n[nH]c3nc(N4CC[C@@H]5[C@H](C4)[C@@]5(CN)c4cc(C)on4)cnc23)c2cccnc12 [Example 128, ((1S,6R,7S)-3-(3-(8-(methoxymethyl)quinolin-5-yl)-1H-pyrazolo[3,4-b]pyrazin-6-yl)-7-(5-methylisoxazol-3-yl)-3-azabicyclo[4.1.0]heptan-7-yl)methanamine] | – |
| < 500 nM | < 1000 nM | CC(C)n1cc2c(Cl)c(-c3n[nH]c4nc(N5CC[C@@H]6[C@H](C5)[C@@]6(CN)c5ccccc5F)cnc34)ccc2n1 [Example 280, ((1S,6R,7R)-3-(3-(4-chloro-2-isopropyl-2H-indazol-5-yl)-1H-pyrazolo[3,4-b]pyrazin-6-yl)-7-(2-fluorophenyl)-3-azabicyclo[4.1.0]heptan-7-yl)methanamine] | – |
| < 500 nM | < 1000 nM | Cn1cc2c(Cl)c(-c3n[nH]c4nc(N5CCC6C(C5)C6(CN)c5cc(CO)on5)cnc34)ccc2n1 (stereo not drawn) [Example 61, (3-(7-(aminomethyl)-3-(3-(4-chloro-2-methyl-2H-indazol-5-yl)-1H-pyrazolo[3,4-b]pyrazin-6-yl)-3-azabicyclo[4.1.0]heptan-7-yl)isoxazol-5-yl)methanol] | – |
| < 500 nM | < 1000 nM | NC[C@]1(c2ccccc2F)[C@@H]2CCN(c3cnc4c(-c5cnc6ccccn56)n[nH]c4n3)C[C@@H]21 [Example 224, ((1S,6R,7R)-7-(2-fluorophenyl)-3-(3-(imidazo[1,2-a]pyridin-3-yl)-1H-pyrazolo[3,4-b]pyrazin-6-yl)-3-azabicyclo[4.1.0]heptan-7-yl)methanamine] | – |
| < 500 nM | < 1000 nM | NC[C@]1(c2ccccc2F)[C@@H]2CCN(c3cnc4c(-c5ccc6c(c5)CCC(=O)N6)n[nH]c4n3)C[C@@H]21 [Example 238, 6-(6-((1S,6R,7R)-7-(aminomethyl)-7-(2-fluorophenyl)-3-azabicyclo[4.1.0]heptan-3-yl)-1H-pyrazolo[3,4-b]pyrazin-3-yl)-3,4-dihydroquinolin-2(1H)-one] | – |
| < 500 nM | > 5000 nM | Cn1ccc(-c2n[nH]c3nc(N4CC[C@@H]5[C@H](C4)[C@@]5(CN)c4ccccc4F)cnc23)c(Cl)c1=O [Example 269, 4-(6-((1S,6R,7R)-7-(aminomethyl)-7-(2-fluorophenyl)-3-azabicyclo[4.1.0]heptan-3-yl)-1H-pyrazolo[3,4-b]pyrazin-3-yl)-3-chloro-1-methylpyridin-2(1H)-one] | – |
| < 500 nM | < 1000 nM | COc1ccc(-c2n[nH]c3nc(N4CC[C@@H]5[C@H](C4)[C@@]5(CN)c4ccc(F)cc4F)cnc23)c2cccnc12 [Example 200, ((1S,6R,7R)-7-(2,4-difluorophenyl)-3-(3-(8-methoxyquinolin-5-yl)-1H-pyrazolo[3,4-b]pyrazin-6-yl)-3-azabicyclo[4.1.0]heptan-7-yl)methanamine] | – |
| < 500 nM | < 1000 nM | NC[C@]1(c2ccccc2F)[C@@H]2CCN(c3cnc4c(-c5cccn6nccc56)n[nH]c4n3)C[C@@H]21 [Example 131, ((1S,6R,7R)-7-(2-fluorophenyl)-3-(3-(pyrazolo[1,5-a]pyridin-4-yl)-1H-pyrazolo[3,4-b]pyrazin-6-yl)-3-azabicyclo[4.1.0]heptan-7-yl)methanamine] | – |
| < 500 nM | < 1000 nM | Cc1csc([C@@]2(CN)[C@@H]3CCN(c4cnc5c(-c6ccc7nn(C)cc7c6Cl)n[nH]c5n4)C[C@@H]32)n1 [Example 79, ((1S,6R,7S)-3-(3-(4-chloro-2-methyl-2H-indazol-5-yl)-1H-pyrazolo[3,4-b]pyrazin-6-yl)-7-(4-methylthiazol-2-yl)-3-azabicyclo[4.1.0]heptan-7-yl)methanamine] | – |
| < 500 nM | < 1000 nM | NC[C@]1(c2ccccc2F)[C@@H]2CCN(c3cnc4c(-c5ccn6nccc6c5)n[nH]c4n3)C[C@@H]21 [Example 136, ((1S,6R,7R)-7-(2-fluorophenyl)-3-(3-(pyrazolo[1,5-a]pyridin-5-yl)-1H-pyrazolo[3,4-b]pyrazin-6-yl)-3-azabicyclo[4.1.0]heptan-7-yl)methanamine] | – |
| < 500 nM | < 1000 nM | Cc1c(-c2n[nH]c3nc(N4CC[C@@H]5[C@H](C4)[C@@]5(CN)c4ccccc4F)cnc23)ccc2ncccc12 [Example 172, ((1S,6R,7R)-7-(2-fluorophenyl)-3-(3-(5-methylquinolin-6-yl)-1H-pyrazolo[3,4-b]pyrazin-6-yl)-3-azabicyclo[4.1.0]heptan-7-yl)methanamine] | – |
| < 500 nM | < 1000 nM | Cn1cnc2ccc(-c3ccc4nc(N5CC[C@@H]6[C@H](C5)[C@@]6(CN)c5ccccc5F)cnc4n3)cc21 [Example 436, ((1S,6R,7R)-7-(2-fluorophenyl)-3-(6-(1-methyl-1H-benzo[d]imidazol-6-yl)pyrido[2,3-b]pyrazin-2-yl)-3-azabicyclo[4.1.0]heptan-7-yl)methanamine] | – |
| < 500 nM | < 1000 nM | Cc1csc(C2(CN)C3CCN(c4nc5nc(Sc6cccnc6C(F)(F)F)cnc5[nH]4)CC32)n1 (stereo not drawn) [Example 67, (7-(4-methylthiazol-2-yl)-3-(5-((2-(trifluoromethyl)pyridin-3-yl)thio)-1H-imidazo[4,5-b]pyrazin-2-yl)-3-azabicyclo[4.1.0]heptan-7-yl)methanamine] | – |
| < 500 nM | < 1000 nM | Cn1c(-c2n[nH]c3nc(N4CC[C@@H]5[C@H](C4)[C@@]5(CN)c4ccccc4F)cnc23)ccc(Cl)c1=O [Example 278, 6-(6-((1S,6R,7R)-7-(aminomethyl)-7-(2-fluorophenyl)-3-azabicyclo[4.1.0]heptan-3-yl)-1H-pyrazolo[3,4-b]pyrazin-3-yl)-3-chloro-1-methylpyridin-2(1H)-one] | – |
| < 500 nM | < 1000 nM | Cc1cc(C2(CN)C3CCN(c4cnc5c(-c6ccc(C)c7ncccc67)n[nH]c5n4)CC32)no1 (stereo not drawn) [Example 21, (7-(5-methylisoxazol-3-yl)-3-(3-(8-methylquinolin-5-yl)-1H-pyrazolo[3,4-b]pyrazin-6-yl)-3-azabicyclo[4.1.0]heptan-7-yl)methanamine] | – |
| < 500 nM | < 1000 nM | Cn1ccc([C@@]2(CN)[C@@H]3CN(c4cnc5c(-c6ccc7nccnc7c6Cl)n[nH]c5n4)C[C@@H]32)n1 [Example 511, ((1R,5S,6r)-3-(3-(5-chloroquinoxalin-6-yl)-1H-pyrazolo[3,4-b]pyrazin-6-yl)-6-(1-methyl-1H-pyrazol-3-yl)-3-azabicyclo[3.1.0]hexan-6-yl)methanamine] | – |
| < 500 nM | < 1000 nM | Cc1csc(C2(CN)C3CCN(c4cnc5c(-c6cccc(F)c6F)n[nH]c5n4)CC32)n1 (stereo not drawn) [Example 86, (3-(3-(2,3-difluorophenyl)-1H-pyrazolo[3,4-b]pyrazin-6-yl)-7-(4-methylthiazol-2-yl)-3-azabicyclo[4.1.0]heptan-7-yl)methanamine] | – |
| < 500 nM | < 1000 nM | Cc1cc([C@@]2(CN)[C@@H]3CCN(c4cnc5c(-c6ccc(C(F)F)c7ncccc67)n[nH]c5n4)C[C@@H]32)no1 [Example 133, ((1S,6R,7S)-3-(3-(8-(difluoromethyl)quinolin-5-yl)-1H-pyrazolo[3,4-b]pyrazin-6-yl)-7-(5-methylisoxazol-3-yl)-3-azabicyclo[4.1.0]heptan-7-yl)methanamine] | – |
| < 500 nM | 1000 to 5000 nM | NCC1(c2ccccn2)C2CCN(c3nc4nc(Sc5cccnc5C(F)(F)F)cnc4[nH]3)CC21 (stereo not drawn) [Example 65, (7-(pyridin-2-yl)-3-(5-((2-(trifluoromethyl)pyridin-3-yl)thio)-1H-imidazo[4,5-b]pyrazin-2-yl)-3-azabicyclo[4.1.0]heptan-7-yl)methanamine] | – |
| < 500 nM | < 1000 nM | CN1Cc2c(ccc(-c3n[nH]c4nc(N5CC[C@@H]6[C@H](C5)[C@@]6(CN)c5ccccc5F)cnc34)c2Cl)C1=O [Example 350, 5-(6-((1S,6R,7R)-7-(aminomethyl)-7-(2-fluorophenyl)-3-azabicyclo[4.1.0]heptan-3-yl)-1H-pyrazolo[3,4-b]pyrazin-3-yl)-4-chloro-2-methylisoindolin-1-one] | – |
| < 500 nM | < 1000 nM | Cc1cc([C@@]2(CN)[C@@H]3CCN(c4cnc5c(-c6cccc7c6OCCO7)n[nH]c5n4)C[C@@H]32)no1 [Example 40, ((1S,6R,7S)-3-(3-(2,3-dihydrobenzo[b][1,4]dioxin-5-yl)-1H-pyrazolo[3,4-b]pyrazin-6-yl)-7-(5-methylisoxazol-3-yl)-3-azabicyclo[4.1.0]heptan-7-yl)methanamine] | – |

| Compound | IC50 [1] | IC50 ([2]; Homo sapiens, KYSE-520, 2 h) | IC50 [2] |
| --- | --- | --- | --- |
| CN(C)C(=O)Cn1cc2c(Cl)c(-c3n[nH]c4nc(N5CC[C@@H]6[C@H](C5)[C@@]6(CN)c5ccccc5F)cnc34)ccc2n1 [Example 428] | < 500 nM | – | < 1000 nM |

Reference: patent US20240109900A1, “AZABICYCLIC SHP2 INHIBITORS” (IRBM S.P.A., priority 2021, published 2024)
